pEC50: −log10 of the molar value. Where two headings read alike, the source gives them in different places.
What was measured:
Assay type in all cases: cell-based
[1] = test system: HCV 2a Rluc cells (NS5A chimeric genotype 2a JFH-1 replicon with genotype 2a J6 strain NS5A gene, M31 present); test: HCV replicon reporter assay, genotype 2a J6 (M31 present); conditions: Hepatitis C virus, read-out: 2a J6
Protocol: Evaluation of cell-based anti-HCV activity: Antiviral potency (EC50) was determined using a Renilla luciferase (RLuc)-based HCV replicon reporter assay. To perform the assay for genotype 1 and 2a JFH-1, HCV 1b RLuc cells (harboring a dicistronic genotype 1b Con1 replicon that encodes a RLuc reporter), or HCV 1a RLuc cells (harboring a dicistronic genotype 1a H77 replicon that encodes a RLuc reporter), or HCV 2a JFH-1 Rluc cells (harboring a dicistronic genotype 2a JFH-1 replicon that encodes a RLuc reporter) were dispensed into 384-well plates. To perform the assay for genotype 2a (with M31 present) or 2b, HCV 2a Rluc or 2b Rluc cells (both with M31 present) harboring a dicistronic NS5A chimeric genotype 2a JFH-1 replicon that encodes a RLuc reporter and either genotype 2a J6 strain NS5A gene or genotype 2b MD2b-1 NS5A gene (based on Los Alamos HCV database isolates, both with M31 present) respectively, were dispensed into 384-well plates. To perform the assay for genotype 3 and 4, HCV 3a RLuc or 4a Rluc cells harboring a dicistronic NS5A chimeric genotype 1b Con1 replicon that encodes a RLuc reporter and either a consensus genotype 3a NS5A gene or genotype 4a NS5A gene (based on Los Alamos HCV database isolates) respectively, were dispensed into 384-well plates. Compounds were re-suspended in DMSO at a concentration of 10 mM and serially diluted in DMSO either manually or using an automated pipeting instrument. Serially diluted compounds were mixed with cell culture media and added to the seeded cells. […] 72 hours later, cells were lysed and Renilla luciferase activity quantified as recommended by the manufacturer (Promega-Madison, Wis.). Non-linear regression was performed to calculate EC50 values.

[2] = test system: HCV 2b Rluc cells (NS5A chimeric genotype 2a JFH-1 replicon with genotype 2b MD2b-1 NS5A gene, M31 present); test: microbe, parasite or virus in culture; conditions: Hepatitis C virus, read-out: 2b
In short: (§1)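 Replicon cells stably carrying the listed RLuc-encoding dicistronic replicons were seeded and treated with DMSO serial dilutions of compound (10 mM stocks) diluted into culture medium. After 72 h, cells were lysed and Renilla luciferase activity measured. EC50 was derived by non-linear regression.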

[3] = test system: HCV 1a RLuc cells (dicistronic genotype 1a H77 replicon, RLuc reporter); test: microbe, parasite or virus in culture; conditions: Hepatitis C virus, read-out: 1a
In short: (§2)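 Replicons used: genotype 1b Con1, 1a H77, 2a JFH-1, and a 2a JFH-1 chimera with J6-strain NS5A (M31 present), all dicistronic.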

[4] = test system: HCV 1b RLuc cells (dicistronic genotype 1b Con1 replicon, RLuc reporter); test: microbe, parasite or virus in culture; conditions: Hepatitis C virus, read-out: 1b (nM)
In short: as §2

[5] = test system: HCV 2a JFH-1 Rluc cells (dicistronic genotype 2a JFH-1 replicon, RLuc reporter); test: microbe, parasite or virus in culture; conditions: Hepatitis C virus, read-out: 2a JFH
In short: as §2

[6] = test system: HCV 3a RLuc cells (NS5A chimeric genotype 1b Con1 replicon with consensus genotype 3a NS5A gene); test: microbe, parasite or virus in culture; conditions: Hepatitis C virus
In short: as §1

[7] = test system: HCV 4a Rluc cells (NS5A chimeric genotype 1b Con1 replicon with genotype 4a NS5A gene); test: microbe, parasite or virus in culture; conditions: Hepatitis C virus, read-out: 4a
In short: as §1

[8] = genotype 2a JFH-1 RLuc replicon
[9] = read-out: 3a, genotype 3a replicon

Row | SMILES | pEC50 [1] | pEC50 [2] | pEC50 ([3]; genotype 1a H77 RLuc replicon) | EC50 [4] | pEC50 [5, 8] | pEC50 [7] | other results
1 | COC(=O)N[C@H](C(=O)N1[C@@H](C)CC[C@H]1c1ncc(-c2ccc3c(c2)COc2cc4c(ccc5nc([C@@H]6CCCN6C(=O)[C@H](N)c6ccccc6)[nH]c54)cc2-3)[nH]1)C(C)C [Example 604] | 9.00 to 12.00 | 9.00 to 12.00 | 9.00 to 12.00 | 0.02 nM | 9.00 to 12.00 |  | 
2 | CCC(C)[C@H](NC(=O)OC)C(=O)N1C[C@@H](COC)C[C@H]1c1nc2ccc3cc4c(cc3c2[nH]1)OCc1cc(-c2cnc([C@@H]3C[C@H](C)CN3C(=O)[C@@H](NC(=O)OC)[C@@H](C)CC)[nH]2)ccc1-4 (stereo partly shown) [Example 640] | 9.00 to 12.00 | 9.00 to 12.00 | 9.00 to 12.00 | 0.015 nM | 9.00 to 12.00 |  | 
3 | COC(=O)N[C@H](C(=O)N1[C@@H](C)CC[C@H]1c1ncc(-c2ccc3c(c2)COc2cc4c(ccc5nc([C@@H]6CCCN6C(=O)[C@@H](NC(=O)OC)C6CCOCC6)[nH]c54)cc2-3)[nH]1)C(C)C [Example 602] | 9.00 to 12.00 | 9.00 to 12.00 | 9.00 to 12.00 |  | 9.00 to 12.00 |  | 
4 | CC[C@H](C)[C@H](NC(=O)OC)C(=O)N1C[C@@H](C)C[C@H]1c1ncc(-c2ccc3c(c2)COc2cc4c(ccc5nc([C@@H]6C[C@H](COC)CN6C(=O)[C@@H](NC(=O)OC)C(C)C)[nH]c54)cc2-3)[nH]1 [Example 642] | 9.00 to 12.00 | 9.00 to 12.00 | 9.00 to 12.00 | 0.014 nM | 9.00 to 12.00 |  | 
5 | COC(=O)N[C@H](C(=O)N1C[C@@H](COC(F)F)C[C@H]1c1ncc(-c2ccc3c(c2)COc2cc4c(ccc5nc([C@@H]6CC[C@H](C)N6C(=O)[C@@H](NC(=O)OC)C(C)C)[nH]c54)cc2-3)[nH]1)C(C)C [Example 632] | 9.00 to 12.00 | 9.00 to 12.00 | 9.00 to 12.00 | 0.008 nM | 9.00 to 12.00 |  | 
6 | COC(=O)NC(C(=O)N1C[C@@H](C)C[C@H]1c1nc2ccc3cc4c(cc3c2[nH]1)OCc1cc(-c2cnc([C@@H]3CC[C@H](C)N3C(=O)[C@@H](NC(=O)OC)C(C)C)[nH]2)ccc1-4)[C@H](C)OC (stereo partly shown) [Example 621] | 9.00 to 12.00 | 9.00 to 12.00 | 9.00 to 12.00 | 0.013 nM | 9.00 to 12.00 |  | 
7 | COC[C@H]1C[C@@H](c2ncc(-c3ccc4c(c3)COc3cc5c(ccc6nc([C@@H]7C[C@H](COC(F)F)CN7C(=O)[C@@H](NC(=O)OC)C(C)C)[nH]c65)cc3-4)[nH]2)N(C(=O)[C@@H](NC(=O)OC)C(C)C)C1 [Example 634] | 9.00 to 12.00 | 9.00 to 12.00 | 9.00 to 12.00 | 0.015 nM | 9.00 to 12.00 |  | 
8 | CC[C@H](C)C(NC(=O)OC)C(=O)N1CCC[C@H]1c1ncc(-c2cc3c4c(c2)OCc2cc(-c5cnc([C@@H]6CCCN6C(=O)[C@@H](NC(=O)OC)[C@@H](C)CC)[nH]5)cc(c2-4)OC3)[nH]1 (stereo in doubt) [Example 346] |  | 7.36 to 9.00 |  | 0.019 nM |  | 9.00 to 12.00 | pEC50 [3]: 9.00 to 12.00; pEC50 [6, 9]: 9.00 to 12.00; pEC50 [5]: 9.00 to 12.00
9 | COC[C@H]1C[C@@H](c2nc3ccc4cc5c(cc4c3[nH]2)OCc2cc(-c3cnc([C@@H]4C[C@H](C)CN4C(=O)C(NC(=O)OC)[C@H](C)OC)[nH]3)ccc2-5)N(C(=O)[C@@H](NC(=O)OC)[C@H](C)OC)C1 (stereo partly shown) [Example 620] | 9.00 to 12.00 | 9.00 to 12.00 | 9.00 to 12.00 | 0.081 nM | 9.00 to 12.00 |  | 
10 | COC[C@H]1C[C@@H](c2ncc(-c3ccc4c(c3)COc3cc5c(ccc6nc([C@@H]7CCCN7C(=O)[C@@H](NC(=O)OC)C(C)C)[nH]c65)cc3-4)[nH]2)N(C(=O)[C@H](N)c2ccccc2)C1 [Example 607] | 9.00 to 12.00 | 9.00 to 12.00 | 9.00 to 12.00 |  | 9.00 to 12.00 |  | 
11 | CC[C@H](C)[C@H](NC(=O)OC)C(=O)N1C[C@@H](C)C[C@H]1c1ncc(-c2ccc3c(c2)COc2cc4c(ccc5nc([C@@H]6C[C@H](COC)CN6C(=O)[C@@H](NC(=O)OC)[C@@H](C)OC)[nH]c54)cc2-3)[nH]1 [Example 641] | 9.00 to 12.00 | 9.00 to 12.00 | 9.00 to 12.00 | 0.03 nM | 9.00 to 12.00 |  | 
12 | COC[C@H]1C[C@@H](c2nc3ccc4cc5c(cc4c3[nH]2)OCc2cc(-c3cnc([C@@H]4CCCN4C(=O)[C@H](NC(=O)OC)c4ccccc4)[nH]3)ccc2-5)N(C(=O)[C@@H](NC(=O)OC)[C@@H](C)OC)C1 [Example 635] |  | 9.00 to 12.00 |  |  |  |  | pEC50 [3]: 9.00 to 12.00; pEC50 [5]: 9.00 to 12.00
13 | CC[C@H](C)[C@H](NC(=O)OC)C(=O)N1C[C@@H](COC)C[C@H]1c1ncc(-c2ccc3c(c2)COc2cc4c(ccc5nc([C@@H]6CC[C@H](C)N6C(=O)[C@@H](NC(=O)OC)C(C)C)[nH]c54)cc2-3)[nH]1 [Example 619] | 9.00 to 12.00 | 9.00 to 12.00 | 9.00 to 12.00 | 0.007 nM | 9.00 to 12.00 |  | 
14 | CC[C@@H](C)[C@H](NC(=O)OC)C(=O)N1C[C@@H](COC)C[C@H]1c1nc2ccc3cc4c(cc3c2[nH]1)OCc1cc(-c2cnc([C@@H]3CC[C@H](C)N3C(=O)[C@@H](NC(=O)OC)[C@H](C)CC)[nH]2)ccc1-4 [Example 643] | 9.00 to 12.00 | 9.00 to 12.00 | 9.00 to 12.00 |  | 9.00 to 12.00 |  | 
15 | COC(=O)N[C@H](C(=O)N1CCC[C@H]1c1nc2ccc3cc(-c4ccc(-c5cnc([C@@H]6[C@H]7CC[C@H](C7)N6C(=O)[C@H](NC(=O)OC)c6ccccc6)[nH]5)c(F)c4)ccc3c2[nH]1)C(C)C [Example 306] | < 7.36 |  |  | 0.011 nM |  | 9.00 to 12.00 | pEC50 ([3]; genotype 1a replicon): 9.00 to 12.00; pEC50 [6, 9]: 9.00 to 12.00; pEC50 ([5]; genotype 2a JFH-1 replicon): 9.00 to 12.00
16 | COC(=O)N[C@H](C(=O)N1CCC[C@H]1c1nc(Cl)c(-c2ccc3c(c2)OCc2c-3ccc(-c3[nH]c([C@@H]4CCCN4C(=O)[C@@H](NC(=O)OC)C(C)C)nc3Cl)c2F)[nH]1)C(C)C [Example 404] | < 7.36 |  |  | 0.008 nM |  | 9.00 to 12.00 | pEC50 ([3]; genotype 1a replicon): 9.00 to 12.00; pEC50 [6, 9]: 9.00 to 12.00; pEC50 ([5]; genotype 2a JFH-1 replicon): 9.00 to 12.00
17 | CC[C@@H](C)[C@H](NC(=O)OC)C(=O)N1C[C@@H](COC)C[C@H]1c1ncc(-c2ccc3c(c2)COc2cc4c(ccc5nc([C@@H]6CC[C@H](C)N6C(=O)[C@@H](NC(=O)OC)C(C)C)[nH]c54)cc2-3)[nH]1 [Example 628] | 9.00 to 12.00 | 9.00 to 12.00 | 9.00 to 12.00 |  | 9.00 to 12.00 |  | 
18 | COC(=O)N[C@H](C(=O)N1CCC[C@H]1c1nc(Cl)c(-c2cc3c4c(c2)OCc2cc(-c5[nH]c([C@@H]6CCCN6C(=O)[C@H](NC(=O)OC)c6ccccc6)nc5Cl)cc(c2-4)OC3)[nH]1)C(C)C [Example 399] | 9.00 to 12.00 |  |  | 0.017 nM |  | 9.00 to 12.00 | pEC50 ([3]; genotype 1a replicon): 9.00 to 12.00; pEC50 [6, 9]: 9.00 to 12.00; pEC50 ([5]; genotype 2a JFH-1 replicon): 9.00 to 12.00
19 | COC(=O)N[C@H](C(=O)N1CCC[C@H]1c1ncc(-c2cc3c4c(c2)OCc2cc(-c5cnc([C@@H]6CCCN6C(=O)[C@@H](NC(=O)OC)C6CCOCC6)[nH]5)cc(c2-4)OC3)[nH]1)C(C)C [Example 25b] | 7.36 to 9.00 |  |  |  |  | 9.00 to 12.00 | pEC50 ([3]; 72 h, Table 1, genotype 1a H77 replicon, 72 hours): 9.00 to 12.00; EC50 ([4]; 72 h): 0.176 nM; pEC50 ([6]; read-out: 3a, Table 1, genotype 3a NS5A chimeric replicon): 9.00 to 12.00; pEC50 ([5]; 72 h, Table 1, genotype 2a JFH-1 replicon, 72 hours): 9.00 to 12.00
20 | COC(=O)N[C@H](C(=O)N1CCC[C@H]1c1ncc(-c2cc3c4c(c2)COc2cc(-c5cnc([C@@H]6CCCN6C(=O)[C@@H](NC(=O)OC)C(C)C)[nH]5)cc(c2-4)OC3)[nH]1)C(C)C [Example 319] | 9.00 to 12.00 |  |  | 0.021 nM |  | 9.00 to 12.00 | pEC50 ([3]; genotype 1a replicon): 9.00 to 12.00; pEC50 [6, 9]: 9.00 to 12.00; pEC50 ([5]; genotype 2a JFH-1 replicon): 9.00 to 12.00

— US10344019B2 (priority 2010, dated 2019)
